Data as given in patent US11505573B2, “Peptide macrocycles against Acinetobacter baumannii” (Hoffmann-La Roche Inc., priority 2018, dated 2022).

Tested on: A. baumannii ATCC 17978
Experiment: Antimicrobial susceptibility testing: 50% growth inhibitory concentration (IC50) determination in Iso-Sensitest broth
Format: cell-based
Settings: Acinetobacter baumannii; A. baumannii strain ATCC17978; Iso-Sensitest medium; OD 600 nm over 16 h; 35±2° C.; read-out: IC50 ATCC17978 (50% growth inhibition concentration)
Method: Antimicrobial Susceptibility Testing: 50% Growth Inhibitory Concentration (IC50) Determination The in vitro antimicrobial activity of the compounds was alternatively determined according to the following procedure: The assay used a 10-points Iso-Sensitest broth medium to measure quantitatively the in vitro activity of the compounds against A. baumannii ATCC 17978. Stock compounds in DMSO were serially twofold diluted (e.g. range from 10 to 0.02 μM final concentration) in 384 wells microtiter plates and inoculated with 49 μl the bacterial suspension in Iso-Sensitest medium to have a final cell concentration of ˜5×10^(5) CFU/ml in a final volume/well of […] Microtiter plates were incubated at 35±2° C. Bacterial cell growth was determined by the measurement of optical density at λ=600 nm each 20 minutes over a time course of 16 h. Growth inhibition was calculated during the logarithmic growth of the bacterial cells by determination of the concentration inhibiting 50% (IC50) and 90% (IC90) of the growth. Table 1 provides the 50% growth inhibitory concentrations (IC50) in micromoles per liter of the compounds of present invention obtained against the A. baumannnii strain ATCC17978.

SMILES | IC50
CNCCCC[C@@H]1NC(=O)[C@H](CCCO)NCc2cccnc2Sc2c(Cl)ccc(-c3ccc(S(=O)(=O)NC(C)=O)cc3)c2CNC(=O)[C@H](Cc2c[nH]c3ccccc23)N(C)C1=O [Example 18.00, N-[4-[(11S,14S,17S)-25-Chloro-11-(3-hydroxypropyl)-17-(1H-indol-3-ylmethyl)-16-methyl-14-[4-(methylamino)butyl]-12,15,18-trioxo-2-thia-4,10,13,16,19-pentazatricyclo[19.4.0.03,8]pentacosa-1(21),3,5,7,22,24-hexaen-22-yl]phenyl]sulfonylacetamide] | 630 nM
CN1C(=O)[C@H](CCCCNCC(F)F)NC(=O)[C@H](CCCN)NCc2cccnc2Sc2c(Cl)ccc(-c3cnc(O)nc3)c2CNC(=O)[C@@H]1Cc1c[nH]c2ccccc12 [Example 19.00, (11S,14S,17S)-11-(3-Aminopropyl)-25-chloro-14-[4-(2,2-difluoroethylamino)butyl]-22-(2-hydroxypyrimidin-5-yl)-17-(1H-indol-3-ylmethyl)-16-methyl-2-thia-4,10,13,16,19-pentazatricyclo[19.4.0.03,8]pentacosa-1(21),3,5,7,22,24-hexaene-12,15,18-trione] | 300 nM
CC(=O)NS(=O)(=O)c1ccc(-c2ccc(Cl)c3c2CNC(=O)[C@H](Cc2c[nH]c4ccccc24)N(C)C(=O)[C@H](CCCCN)NC(=O)[C@H](CCCNCCC(=O)O)NCc2cccnc2S3)cc1 [Example 20.00, 3-[3-[(11S,14S,17S)-22-[4-(Acetylsulfamoyl)phenyl]-14-(4-aminobutyl)-25-chloro-17-(H-indol-3-ylmethyl)-16-methyl-12,15,18-trioxo-2-thia-4,10,13,16,19-pentazatricyclo[19.4.0.03,8]pentacosa-1(21),3,5,7,22,24-hexaen-11-yl]propylamino]propanoic acid] | 520 nM
CN1C(=O)[C@H](CCCCN)NC(=O)[C@H](CCCN)NCc2cccnc2Sc2c(Cl)cc(-c3nnn[nH]3)cc2CNC(=O)[C@@H]1Cc1c[nH]c2ccccc12 [Example 21.00, (11S,14S,17S)-14-(4-Aminobutyl)-11-(3-aminopropyl)-25-chloro-17-(1H-indol-3-ylmethyl)-16-methyl-23-(1H-tetrazol-5-yl)-2-thia-4,10,13,16,19-pentazatricyclo[19.4.0.03,8]pentacosa-1(21),3,5,7,22,24-hexaene-12,15,18-trione] | 10000 nM

Other lines, results leading:

IC50 | SMILES
5220 nM | CC(=O)NS(=O)(=O)c1ccc(-c2ccc(Cl)c3c2CNC(=O)[C@H](Cc2c[nH]c4ccccc24)N(C)C(=O)[C@H](CCCCNCC(F)F)NC(=O)[C@H](CCCO)NCc2cccnc2S3)cc1 [Example 17.00, N-[4-[(11S,14S,7S)-25-Chloro-14-[4-(2,2-difluoroethylamino)butyl]-11-(3-hydroxypropyl)-17-(1H-indol-3-ylmethyl)-16-methyl-12,15,18-trioxo-2-thia-4,10,13,16,19-pentazatricyclo[19.4.0.03,8]pentacosa-1(21),3,5,7,22,24-hexaen-22-yl]phenyl]sulfonylacetamide]
180 nM | CN1C(=O)[C@H](CCCCN)NC(=O)[C@H](CCCN)NCc2cccnc2Sc2c(Cl)cc(-c3cn[nH]n3)cc2CNC(=O)[C@@H]1Cc1c[nH]c2ccccc12 [Example 22.00, (11S,14S,17S)-14-(4-Aminobutyl)-1-(3-aminopropyl)-25-chloro-17-(1H-indol-3-ylmethyl)-16-methyl-23-(1H-triazol-5-yl)-2-thia-4,10,13,16,19-pentazatricyclo[19.4.0.03,8]pentacosa-1(21),3,5,7,22,24-hexaene-12,15,18-trione]
